Source: patent publication US4950651A, “Nitroso-N-(β-chloro ethyl)-carbamoyl peptides” (priority 1981, dated 1990)
Where a name gives a salt, the structure may show the parent alone. Read-outs that look alike come from different tables or passages of the source. Where a SMILES comes first, the peptide text is derived from it. The star is where a group is joined. Carbamoyl(2-ClEt,NO) = O=NN(CCCl)C(=O)*

Experiments:
[1] = tested on: L-1210 leukemia; test: Effect on intraperitoneally implanted L-1210 leukemia in mice (Table I); assay type: in vivo; conditions: treatment 3 days
Text: In table I the effect of Compound X [drawing 8] and VII on intraperitoneally implanted L-1210 leukemia is shown on mice.
Tumor inoculum = 10^6, ascites cells, i.p.
Host animal = CDF, female mice
Toxicity = on the 5th day < 4/6 mice are alive.
Evaluation = MST = average survival period
Critical limit = T/C ≥ 125, significant antitumor activity.

[2] = tested on: L1210 leukemia; assay type: in vivo, mice
Text: Effect of compound of formula X in combination
with pharmaceuticals in mice suffering from L1210

[3] = tested on: Lewis lung tumor; test: Effect on solid tumors: Lewis lung metastatizing mice tumor (i.m.); assay type: in vivo
Text: (§1) (B) Lewis lung and B16 melanoma - meta-
(§2) statizing mice tumor (i.m.)
(§3) i.p. administration from the 1st day after […]

[4] = tested on: B16 melanoma; test: Effect on solid tumors: B16 melanoma metastatizing mice tumor (i.m.); assay type: in vivo
Text: as §1, §2, §3

[5] = tested on: L1210 leukemia; test: Relation between effect and chemical structure in mice suffering from L1210 leukemia (Table III); assay type: in vivo
Text: Examination of the relation between the
effect and the chemical structure with compounds
similar to compound of formula X in mice suffering

How did the “Average loss of weight on the 5th day” value ([1]; dose IP 30 mg/kg) turn out when O=NN(CCCl)C(=O)NCCCl [BCNU, 1,3-bis-(β-chloro-ethyl)-1-nitroso-urea] was run?
The value was -0.8 g.

What about the “MST (average survival period)” value ([1]; dose IP 30 mg/kg) of the same compound?
Its value is over 47.0 days.

What about the “MST efficiency %, T/C” value ([1]; dose IP 30 mg/kg) of the same compound?
The value was over 783%.

And the “Number of live mice on the 5th day” value ([1]; dose IP 30 mg/kg)?
The value was 6/6.

What about the “Number of live mice on the [47th] day” value ([1]; dose IP 30 mg/kg) of the same compound?
Its value is 5.

What about the “Average loss of weight on the 5th day” value ([1]; dose IP 40 mg/kg) of the same compound?
Its value is -1.4 g.

And the “MST (average survival period)” value ([1]; dose IP 40 mg/kg)?
Its value is over 47.0 days.

What about the “MST efficiency %, T/C” value ([1]; dose IP 40 mg/kg) of the same compound?
The value was over 783%.

And the “Number of live mice on the 5th day” value ([1]; dose IP 40 mg/kg)?
Its value is 6/6.

What about the “Number of live mice on the [47th] day” value ([1]; dose IP 40 mg/kg) of the same compound?
The value was 5.

And the ILS % ([2]; 5 mg/kg, day 1)?
Its ILS % is 25%.

What about the ILS % ([2]; 20 mg/kg, day 1) of the same compound?
Its ILS % is 110%.

And the ILS % ([2]; 1 × 10 mg/kg, day 2)?
The ILS % was 77%.

What about the ILS % ([2]; 1 × 20 mg/kg, day 3) of the same compound?
The ILS % was 70%.

And the ILS % ([3]; 20 mg/kg i.p.)?
Its ILS % is 36%.

What about the Median surviving day ([3]; 20 mg/kg i.p.) of the same compound?
Its Median surviving day is 28.5 days.

And the ILS % ([3]; 5 × 4 mg/kg i.p.)?
The ILS % was 19%.

What about the Median surviving day ([3]; 5 × 4 mg/kg i.p.) of the same compound?
Its Median surviving day is 25.0 days.

What about the ILS % ([4]; 20 mg/kg i.p.) of the same compound?
The ILS % was 61%.

And the Median surviving day ([4]; 20 mg/kg i.p.)?
The Median surviving day was 42.0 days.

And the ILS % ([4]; 5 × 4 mg/kg i.p.)?
Its ILS % is 31%.

And the Median surviving day ([4]; 5 × 4 mg/kg i.p.)?
Its Median surviving day is 34.0 days.

What does the source list for O=NN(CCCl)C(=O)N[C@H]1C(O)O[C@H](CO)[C@@H](O)[C@@H]1O (stereo partly drawn) [Chlorosoticin, 2-[3-(2-chloro-ethyl)-3-nitroso-ureido]-2-deoxy-O-glycopyranose]?
Average loss of weight on the 5th day ([1]; dose IP 8 mg/kg): +1.2 g; MST (average survival period) ([1]; dose IP 8 mg/kg): 9.0 days; MST efficiency %, T/C ([1]; dose IP 8 mg/kg): 150%; Number of live mice on the 5th day ([1]; dose IP 8 mg/kg): 6/6; Average loss of weight on the 5th day ([1]; dose IP 16 mg/kg): -0.8 g; MST (average survival period) ([1]; dose IP 16 mg/kg): 20.5 days; MST efficiency %, T/C ([1]; dose IP 16 mg/kg): 342%; Number of live mice on the 5th day ([1]; dose IP 16 mg/kg): 6/6; Average loss of weight on the 5th day ([1]; dose IP 32 mg/kg): -1.2 g; MST (average survival period) ([1]; dose IP 32 mg/kg): > 47.0 days; MST efficiency %, T/C ([1]; dose IP 32 mg/kg): > 783%; Number of live mice on the 5th day ([1]; dose IP 32 mg/kg): 5/6; Number of live mice on the [47th] day ([1]; dose IP 32 mg/kg): 3; Average loss of weight on the 5th day ([1]; dose IP 48 mg/kg): -1.3 g; MST (average survival period) ([1]; dose IP 48 mg/kg): 8.5 days; MST efficiency %, T/C ([1]; dose IP 48 mg/kg): 142%; Number of live mice on the 5th day ([1]; dose IP 48 mg/kg): 6/6

How did the ILS % ([5]; 15 mg/kg) turn out when CC(C)[C@H](NC(=O)[C@@H]1CCCN1C(=O)[C@H](CCCCN)NC(=O)CNC(=O)N(CCCl)N=O)C(N)=O [XII, α-N-nitroso-N-(β-chloro-ethyl)-carbamoyl-glycyl-lysyl-prolyl-valine-amide-hydrochloride] ({Carbamoyl(2-ClEt,NO)}-GKPV-NH2) was run?
The ILS % was 20%.

And the ILS % ([5]; 45 mg/kg)?
Its ILS % is 10%.

What about the ILS % ([5]; 100 mg/kg) of the same compound?
The ILS % was 35%.

And the ILS % ([5]; 150 mg/kg)?
The ILS % was 230%.

With O=P1(N(CCCl)CCCl)NCCCO1 (stereo not drawn) [cyclophosphamide] as the compound, how does the ILS % ([2]; 1 × 50 mg/kg, day 2) read?
The ILS % was 44%.

How did the ILS % ([2]; 1 × 50 mg/kg, day 2) turn out when O[C@H]([C@H](O)[C@@H](O)CBr)[C@H](O)CBr [dibromodulcitol] was run?
Its ILS % is 0%.
